Data as given in patent US11466067B2 (priority 2019, dated 2022).

Experiments:
[1] = tested on: circulating cytokines, chemokines, growth factors; format: in vivo, mice; details: mouse, in vivo
[2] = Salt screening for dimer stability (SE-HPLC); format: physicochemical; details: buffer exchange, data not shown
Method: Formulations were prepared with the delivery construct at 20 g/Lin 10 mM Sodium Phosphate at pH 7.0 with the salts and salt concentrations as indicated in Table 53. The percentage of the IL-10 delivery construct present in dimer form, monomer form, and high molecular weight aggregates (HMW Agg) was assessed by size exclusion HPLC as indicated previously.

[3] = Single oral capsule dose in NHP: plasma caffeine by LC-MS/MS; format: in vivo, Macaca fascicularis
Method: In order to quantitate plasma caffeine levels, an LC-MS/MS detection system was employed. A 25-μL matrix aliquot was fortified with 25 μL of 2.00 μg/mL caffeine-trimethyl-^13C3 internal standard working solution. Analytes were isolated through supported liquid extraction (SLE). A portion of the eluate was transferred and evaporated under a nitrogen stream at approximately 45° C., and the remaining residue reconstituted with 500 μL of water/acetonitrile (95:5, v/v). The final extract was analyzed via HPLC with MS/MS detection using positive ion electrospray and reverse phase chromatography. Caffeine concentration was determined using similarly run calibration controls.
IL-10 delivery construct dosing at multiple fixed doses in non-naïve adult male Macaca fascicularis was conducted by Valley Biosystems (West Sacramento, Calif.). […] Dosing groups are described in TABLE 45.
Blood samples were collected in K2EDTA tubes from each animal pre-dose and at 0.5, 1, 2, 3, 4, 5, 6, 7, 8, and 24 hours post-dose. Animals were returned to home cages following the 2-hour sample collection. Following physical restraint, blood samples were collected via direct venous puncture using a cephalic, femoral or saphenous vein, which were processed to plasma and stored frozen at −60° C. until shipment.

[4] = initial liquid formulation screen
[5] = Surfactant evaluation under shear stress (visual, turbidity, SEC-HPLC); format: physicochemical; details: for SEC-HPLC forms of construct (HMW, dimer, monomer) with surfactant: 1×PBS, before/after vortexing
Method: Following vortexing, the solution was visually inspected. The sample without a surfactant was slightly hazy while the samples with the surfactant were clear after vortexing. The turbidity (340-360 nm) of the solution was assessed after vortexing.
SEC-HPLC was carried out on the IL-10 delivery construct formulations before (FIG. 93) and after (FIG. 94) vortexing (TABLE 48).

STAT3 = details: 20 min stimulation
STAT3, IL-1Ra = assay: pSTAT3/STAT3 and systemic IL-1Ra in non-inflamed mice (ELISA MSD); format: in vivo
STAT3 phosphorylation = assay: pSTAT3 and hIL-10 immunofluorescence in intestine 40 min post oral gavage; format: in vivo, rat
Method: This observation is consistent with findings in mice that intestinal epithelial cells can express IL-10 receptors at their apical surface under certain conditions associated with development and maintenance of barrier function. […] In order to quantify how test articles affected intestinal IL-10 signal transduction pathways, image analysis was performed: high-throughput image batches were collected, segmented by epithelial versus Lamina propria localization, and then by cellular features.

[6] = Intraluminal injection in T-cell transfer colitis model, rhIL-10 ELISA; format: in vivo, BALB/c and SCID mice; details: 159 pmoles intraluminal
Method: This study was conducted to examine the potential for the carrier protein to transport rhIL-10 from the intestinal lumen into the submucosal region in inflamed intestinal tissue. The T lymphocyte (T cell) transfer model was used as it is a well-established model of induced chronic colitis in mice and presents many of the essential immunological hallmarks observed in IBD patients. Nine BALB/c mice and twelve SCID mice, including nine with the colitis-like model of inflammation, were dosed with 20 μl of test article via intraluminal injection into the distal ileum and the proximal, middle and distal colon.
PBS vehicle was administered to healthy BALB/c mice and both healthy and induced colitis SCID mice (n=3/group). In each group, two mice were terminated 10 minutes after intraluminal injections, and one was terminated 40 minutes after intraluminal injections. Intestinal tissue and serum were collected. Collected tissue was fixed, embedded, sectioned and H&E stained for histological assessment of inflammatory status. ELISA analysis to measure rhIL 10 was performed on lysates prepared from intestinal tissue and serum (FIGS. 106A-106D).

[7] = Dimer purity during compaction/granulation (SEC); format: physicochemical; details: slugging/granulation formulation intermediates
Method: The compatibility of the IL-10 delivery construct was evaluated for the initial steps of tablet formation. Blending and compaction processes were conducted. Both roller compaction and slugging was conducted, with subsequent milling to granules in each case. In order to explore excipient functionality and compatibility, different excipients were included in the three formulations.
Roller compaction was conducted at 2 forces, and the resulting ribbons were individually granulated. Materials were reconstituted in PBS at 0.65 mg/mL SEQ ID NO: 5 and filtered with 0.2 um filter (Advantec) before SEC analysis. Samples were also incubated at 40° C. for two weeks before reconstitution and analysis.
The same analysis was conducted for the intermediates generated in the slugging/granulation process (TABLE 30). As well as the different compaction method, the slugging/granulation batch differed in binder and lubricant composition.

Nc1ccc(O)c(C(=O)O)c1 [5-ASA, 5-aminosalicylic acid, reference compound]
oxazolone-induced increase in plasma GCSF/CSF3 [1]: attenuated

N.N.O=S(=O)(O)O [NH4SO4, ammonium sulfate]
behaviour of construct at higher salt concentrations [2]: precipitate during buffer exchange

O=S(=O)([O-])[O-].[Na+].[Na+] [Na2SO4, sodium sulfate]
behaviour of construct at higher salt concentrations [2]: precipitate during buffer exchange

Cn1c(=O)c2c(ncn2C)n(C)c1=O [caffeine]
plasma caffeine Tmax ([3]; all doses): 4 hours post dose
time at which absorption of caffeine was observable (capsule opening) ([3]; cynomolgus monkey, in vivo): 2-3 hours post dose

poloxamer 188
aggregation of target construct under shear stress [4]: reduced aggregation
SEC-HPLC forms of construct (HMW, dimer, monomer) with surfactant [5]: seemed to stabilize the IL-10 delivery construct

polysorbate 20
turbidity (340-360 nm) after vortexing ([5]; 0.1% in 1×PBS): increase in absorbance was also observed
SEC-HPLC forms of construct (HMW, dimer, monomer) with surfactant [5]: most amount of monomer before vortexing

polysorbate 80
SEC-HPLC forms of construct (HMW, dimer, monomer) with surfactant [5]: increase in HMW aggregates and monomers

rhIL-10: recombinant human IL-10 (SEQ ID NO: 2), commercial preparation used as comparator
amplitude of pSTAT3/total STAT3 (STAT3): 2.19%
increase in ratio of pSTAT3 to total STAT3 (STAT3, IL-1Ra; construct 1 mg/kg, rhIL-10 0.9 mg/kg (equimolar), non-inflamed colon tissue): did not significantly alter
increase of systemic IL-1Ra (STAT3, IL-1Ra; construct 10 mg/kg, rhIL-10 3 mg/kg (equimolar)): did not significantly increase
hIL-10 and pSTAT3 in intestinal tissue (STAT3 phosphorylation): pSTAT3 induction in enterocytes but not in cells within the Lamina propria
rhIL-10 in serum of inflamed animals [6]: minimal amounts

B1: Drug Substance (DS) (protein)
chain: MVEEALNIFDECRSPCSLTPEPGKPIQSKLSIPSDVVLDEGVLYYSMTINDEQNDIKDEDKGESIITIGEFATVRATRHYVNQDAPFGVIHLDITTENGTKTYSYNRKEGEFAINWLVPIGEDSPASIKISVDELDQQRNIIEVPKLYSIDLDNQTLEQWKTQGNVSFSVTRPEHNIAISWPSVSYKAAQKEGSRHKRWAHWHTGLALCWLVPMDAIYNYITQQNCTLGDNWFGGSYETVAGTPKVITVKQGIEQKPVEQRIHFSKGNAMSALAAHRVCGVPLETLARSRKPRDLTDDLSCAYQAQNIVSLFVATRILFSHLDSVFTLNLDEQEPEVAERLSDLRRINENNPGMVTQVLTVARQIYNDYVTHHPGLTPEQTSAGAQAGGGGSGGGGSGGGGSPGQGTQSENSCTHFPGNLPNMLRDLRDAFSRVKTFFQMKDQLDNLLLKESLLEDFKGYLGCQALSEMIQFYLEEVMPQAENQDPDIKAHVNSLGENLKTLRLRLRRCHRFLPCENKSKAVEQVKNAFNKLQEKGIYKAMSEFDIFINYIEAYMTMKIRN
modifications: dimer
Purity (dimer purity) [7]: 81.2
